Test results taken from a compilation of properties of binary mixtures (doi:10.1016/j.molliq.2022.119209).

Experiment: xn = mol fraction of the nth substance listed
Conditions: 100 kPa

CCCC[n+]1ccn(C)c1C.NCC(=O)[O-] + O
viscosity [mPa·s]
Conditions	x1 = 0.0999	x1 = 0.1982	x1 = 0.3003	x1 = 0.3904	x1 = 0.4786	x1 = 0.6	x1 = 0.6999	x1 = 0.798	x1 = 0.9001	x1 = 1
288.15 K	25.2	40.3	63	92	125	180	232	298	390	480
293.15 K	18.2	29.1	45.4	–	90	129	163	205	257	318
298.15 K	–	–	–	49.1	67	–	–	–	178	218
303.15 K	10.4	17.3	26.7	37.7	51	71	88	105	–	152
308.15 K	–	13.1	–	–	38.3	53	–	77	90	109
313.15 K	6.3	10.8	16.6	–	31.2	43.1	53	62	–	84
318.15 K	5.7	9.6	14.7	20.5	27.5	38.1	–	–	61	72

CCCCn1cc[n+](C)c1C.C[C@@H](O)[C@H](N)C(=O)[O-] + O
viscosity [mPa·s]
Conditions	x1 = 0.0998	x1 = 0.1919	x1 = 0.2985	x1 = 0.4004	x1 = 0.4927	x1 = 0.599	x1 = 0.7003	x1 = 0.8001	x1 = 0.9012	x1 = 1
288.15 K	57	84	141	228	–	470	650	880	1181	1472
293.15 K	40.4	61	–	164	236	331	–	600	780	960
298.15 K	28.7	44	73	115	164	231	–	–	510	610
303.15 K	18.1	28.7	47.4	74	105	145	191	245	310	363
308.15 K	15.6	–	40.6	–	89	–	159	–	245	285
313.15 K	9.8	15.8	–	40.6	57	–	100	122	145	167
318.15 K	8	13.1	–	–	–	62	–	–	107	125
